Laboratory results taken from US8288372B2, “Method for treating headache with loxapine” (Alexza Pharmaceuticals, Inc., priority 2002, dated 2012).
Read-outs that look alike come from different tables or passages of the source. Marks after values point to notes of the source that are not given here. Blank lines part the entries; values can stand above or below the molecule they belong to.

Tests used:
Male mice = test: Mouse writhing test (acetic acid 0.5% i.p.); settings: for Effect on the number of writhes induced by acetic acid: five doses i.p.; for Dose from which the number of writhes was significantly decreased: Mann Whitney U test vs vehicle
Method: Male mice weighing 23-28 g were used in this test. Mice were injected with acetic acid (0.5% i.p.). This treatment induces a recognizable writhing response in control animals. The number of writhes is counted for 10 minutes beginning 5 minutes after injection of acetic acid. Ten mice were studied per group. The test was performed blind. Loxapine and amoxapine (dispersed in 0.2% hydroxypropylmethylcellulose, then dissolved in saline) were evaluated at five doses, administered i.p. 30 minutes before acetic acid, and compared with a vehicle control (0.2% hydroxypropylmethylcellulose in saline) group. Dosage rates for loxapine were 0.125, 0.25, 0.5, 1 and 2 mg/kg. Dosage rates for amoxapine were 1, 2, 4, 8 and 16 mg/kg. […] The data were analyzed by comparing the treated groups with the vehicle control using Mann Whitney U tests.

animal model = settings: chronic administration of amoxapine alone; cited from earlier work
[1] = cited from earlier work
[2] = Toxicokinetic analysis of loxapine plasma concentration after aerosol inhalation; assay type: in vivo, beagle dogs
Method: On the first day of the repeat dose (5 day) portion of the study, plasma samples were collected for toxicokinetic analysis prior to dosing, 2 minutes after the onset of dosing, immediately after dosing, 20 minutes and 1, 3, 9 and 24 hours post dosing. Samples were stored at −80° C. until loxapine plasma concentration analysis. Loxapine plasma concentration can be measured using analytical methods well known in the art, such as LC/MS, LC/MS/MS, and/or GC/MS. […] The rate of rise in loxapine plasma concentration is found to average at least 70 ng/mL/minute at the 2 mg/kg dose level over the first 2 minutes of dosing, and 20 ng/mL/minute at the 2 mg/kg dose level over the first 10 minutes of dosing. The rate of rise in loxapine plasma concentration is found to average at least 7 ng/mL/minute at the 0.2 mg/kg dose level over the first 2 minutes of dosing, and 2 ng/mL/minute at the 0.2 mg/kg dose level over the first 10 minutes of dosing. Therapeutic plasma levels of approximately at least 0.5 ng/mL, 1 ng/mL, 2 ng/mL, 4 ng/mL, 8 ng/mL, or even 15 ng/mL are obtained within 10 minutes, 5 minutes, and even within 2 minutes at both dose levels.

Beagle Dog = settings: in vivo
[3] = test system: person with migraine headache; test: Clinical use of loxapine tablet for an acute migraine attack; assay type: in vivo, human; settings: 25 mg tablet by mouth
Method: A person in generally good health notes onset of moderate pain localizing to the right side of their head over approximately 10 minutes while at home. Over the next 10 minutes, the pain becomes more severe, characterized by throbbing. The person recognizes this as a migraine headache, and also knows that for their such headaches, when untreated, tend to persist for at least a full day with nausea accompanying the headache pain and with the pain so severe as to render sleeping difficult or impossible. The person turns down the lights in their living room to avoid the pain caused by bright light entering their eyes, and turns off the radio, because noise from the radio was worsening their headache pain. They take a 25 mg loxapine tablet by mouth with a glass of water. Over the next 15 minutes, the headache pain begins to […], and the person's stomach is mildly upset. […] Their stomach no longer bothers them. […] Light and sound are no longer bothersome. They eat a normal meal without stomach upset.

[4] = test system: subjects with a history of moderate to severe migraine headache; test: Phase II clinical trial of loxapine for the treatment of acute migraine attacks; assay type: in vivo, human
From the text: The study methodology is a double-blind, randomized, placebo-controlled dose-ranging trial. Healthy male and female subjects 18 to 65 years of age, inclusive, with a history of moderate to severe migraine headache by self-report (migraine with or without aura) with average frequency of 1-6 attacks per month during the past 3 months are recruited to participate in the study. Those subjects meeting entry criteria are enrolled and randomized to receive one of the following treatments: placebo, loxapine rapid delivery system ˜1.25 mg, loxapine rapid delivery system ˜2.5 mg, loxapine rapid delivery system ˜5 mg, loxapine rapid delivery system ˜10 mg. Higher loxapine doses may also be tested if found safe in a Phase I clinical trial. The loxapine rapid delivery system is a means of delivering loxapine to a migraine patient such that maximum plasma drug concentrations are obtained within 1 hour, 30 minutes, 15 minutes, 10 minutes, 5 minutes, or even 2 minutes or less. The condensation aerosol delivery system described above with respect to a Phase I clinical trial is one such system. Other rapid delivery systems include various durations of intravenous infusions or injections.
Immediately prior to receiving the treatment to which the patient has been randomized, the patient rates their severity of headache and nausea on a 4-point scale (0—absent, 1—mild, 2—moderate, 3—severe) and photophobic and phonophobia on a 2-point scale (Does light make your headache worse? 0—No, 1—Yes; Does noise make your headache worse? O—No, 1—Yes). Alternatively, an 11-point visual-analogue scale (0—none to 10—maximally severe) or other appropriate scale can be used. Subjects are asked to repeat these ratings at timepoints of 15 and 30 minutes following treatment, and also at 1, 2, 4, 8, 12 and 24 hours post treatment. Subjects are further asked for their global assessment of treatment efficacy (1—very poor to 5—very good) at 120 minutes and 24 hours post treatment. Concomitant medications, if any, are also recorded.

[5] = 1 mg/kg i.p. 30 minutes before acetic acid, first or second experiment
[6] = 2 mg/kg i.p. 30 minutes before acetic acid, first or second experiment

SMILES: Clc1ccc2c(c1)C(N1CCNCC1)=Nc1ccccc1O2 [Amoxapine, 2-chloro-11(1-piperazinyl)dibenz(b,f) (1,4) oxazepine]
Reduction in acetic acid writhing, percentage of control vehicle pretreatment (Male mice; [5]): −23% NS | Reduction in acetic acid writhing, percentage of control vehicle pretreatment (Male mice; [6]): −39% * | Reduction in acetic acid writhing, percentage of control vehicle pretreatment (Male mice; 4 mg/kg i.p. 30 minutes before acetic acid, first or second experiment): −71% *** | Reduction in acetic acid writhing, percentage of control vehicle pretreatment (Male mice; 8 mg/kg i.p. 30 minutes before acetic acid, first or second experiment): −93% *** | Reduction in acetic acid writhing, percentage of control vehicle pretreatment (Male mice; 16 mg/kg i.p. 30 minutes before acetic acid): −100% *** | Effect on the number of writhes induced by acetic acid (Male mice): dose-dependently decreased the number of writhes | Dose from which a clear / marked effect on writhing was observed (Male mice; i.p.): ≥ 4 mg/kg | Dose from which the number of writhes was significantly decreased (Male mice; i.p.): ≥ 2 mg/kg | Dose from which sedation was observed (Male mice; male, mouse, in vivo, ip): ≥ 2 mg/kg | Latency of the tail-flick (animal model): no change | Cmax ([1]; lowest used oral dose 50 mg (Jue et al. 1982)): ~30 ng/mL | Cmax ([1]; oral 100 mg (Calvo et al. 1985)): ~50 ng/mL | Tmax after oral administration ([1]; oral 100 mg): ~1.5 h | Blood levels after repeated dosing ([1]; repeated amoxapine dosing (Calvo et al. 1985)): 30 to 300 ng/mL

Food consumption (Beagle Dog): roughly normal | Histopathological examination of gross lesions (Beagle Dog): no treatment related findings | Histopathological examination of larynx, trachea, mainstem bronchi, lungs including bronchi (Beagle Dog): No treatment related abnormalities | Signs of bronchoconstriction (wheezing, prolonged expiratory phase, cough) (Beagle Dog): no signs of bronchoconstriction
SMILES: CN1CCN(C2=Nc3ccccc3Oc3ccc(Cl)cc32)CC1 [Loxapine, 2-chloro-11(4-methyl-1-piperazinyl)dibenz(b,f) (1,4) oxazepine]
Average rate of rise in loxapine plasma concentration ([2]; 0.2 mg/kg, first 2 minutes of dosing): at least 7 ng/mL/minute | Average rate of rise in loxapine plasma concentration ([2]; 0.2 mg/kg, first 10 minutes of dosing): ≥ 2 ng/mL/min | Average rate of rise in loxapine plasma concentration ([2]; 2 mg/kg, first 2 minutes of dosing): at least 70 ng/mL/minute | Average rate of rise in loxapine plasma concentration ([2]; 2 mg/kg, first 10 minutes of dosing): ≥ 20 ng/mL/min | Time to peak plasma concentration after end of drug inhalation ([2]; aerosol inhalation, first day of repeat dose): ≤ 2 min | Reduction in acetic acid writhing, percentage of control vehicle pretreatment (Male mice; 0.125 mg/kg i.p. 30 minutes before acetic acid): −57% ** | Reduction in acetic acid writhing, percentage of control vehicle pretreatment (Male mice; 0.25 mg/kg i.p. 30 minutes before acetic acid): −90% *** | Reduction in acetic acid writhing, percentage of control vehicle pretreatment (Male mice; [5]): −100% *** | Reduction in acetic acid writhing, percentage of control vehicle pretreatment (Male mice; [6]): −99% *** | Effect on the number of writhes induced by acetic acid (Male mice): dose-dependently decreased the number of writhes | Dose from which a clear / marked effect on writhing was observed (Male mice; i.p.): ≥ 0.25 mg/kg | Dose from which the number of writhes was significantly decreased (Male mice; i.p.): ≥ 0.125 mg/kg | Dose from which sedation was observed (Male mice; i.p., mice): ≥ 0.25 mg/kg | Cmax for loxapine only ([1]; oral dose of 25 mg, a different study): 10 to 12 ng/mL | Tmax after oral administration ([1]; oral, manufacturer studies (Lederle Laboratories)): 2 to 3 h | Gross pathology findings at necropsy (Beagle Dog): No treatment related findings | Signs of headache after brief nap [3]: without any signs of headache | Return of headache ([3]; no further medication): does not return over the next 72 hours | Headache pain ([3]; over the 1 hour following the first 15 minutes): diminishes slowly | Therapeutic effect of the drug ([4]; 5 mg and 10 mg, rapid delivery system, within 1 hour): strong therapeutic effect | Severity of headache in treated patients ([4]; 5 mg and 10 mg, at 1 hour, even 30 minutes, sometimes 15 minutes): markedly lower than prior to treatment | Headache relief versus placebo ([4]; 5 mg or 10 mg, at 1 hour, statistically significant at p<0.05 assuming large sample): marked advantage | Persistence of advantage versus placebo ([4]; 5 mg or 10 mg, unless placebo patients get rescue medication): persists at 2 hours, 4 hours, 8 hours, and even 24 hours
